Laboratory results taken from PMC7979807, “A 37-amino acid loop in the Yarrowia lipolytica hexokinase impacts its activity and affinity and modulates gene expression” (Scientific Reports, 2021).

Columns and labels:
Test in all cases: Hexokinase Colorimetric Assay Kit, whole-cell extract, […] hexose
Assay type in all cases: biochemical
YlHxk1 [1] = molecular target: T1, YlHxk1 (Yarrowia lipolytica, UniProt F2Z672, E500G); details: relative to YlHxk1, absolute Km not given; extract 30 µg/mL protein in PBS pH 7.4; host hxk1 glk1
T1 construct: gene YALI0_B22308g; full-length, 534 residues, untagged; pTEF overexpression in Y. lipolytica Po1d hxk1 glk1; whole-cell extract; gene from W29 genomic DNA
T1 sequence (F2Z672 entry or part of it E500G): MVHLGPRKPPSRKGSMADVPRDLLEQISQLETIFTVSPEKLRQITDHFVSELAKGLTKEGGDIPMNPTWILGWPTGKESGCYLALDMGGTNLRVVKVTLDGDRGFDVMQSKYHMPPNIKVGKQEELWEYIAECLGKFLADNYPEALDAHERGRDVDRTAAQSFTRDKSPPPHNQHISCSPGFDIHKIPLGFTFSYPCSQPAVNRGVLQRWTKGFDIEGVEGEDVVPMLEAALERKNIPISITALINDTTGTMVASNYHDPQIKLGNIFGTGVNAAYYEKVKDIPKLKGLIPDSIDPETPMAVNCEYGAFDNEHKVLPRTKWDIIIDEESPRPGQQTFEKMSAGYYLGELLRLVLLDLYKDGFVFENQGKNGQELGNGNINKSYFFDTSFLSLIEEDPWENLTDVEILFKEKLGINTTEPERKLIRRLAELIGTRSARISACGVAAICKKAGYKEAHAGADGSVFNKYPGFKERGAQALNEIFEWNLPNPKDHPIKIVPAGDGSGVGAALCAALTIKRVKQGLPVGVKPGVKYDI

ScHxk2 [2] = molecular target: T2, ScHxk2 (Saccharomyces cerevisiae, UniProt P04807); details: relative to YlHxk1, absolute Km not given; extract 30 µg/mL protein in PBS pH 7.4; host hxk1 glk1
T2 construct: gene HXK2; full-length, untagged; pTEF overexpression in Y. lipolytica Po1d hxk1 glk1; whole-cell extract
T2 sequence (P04807 2-486): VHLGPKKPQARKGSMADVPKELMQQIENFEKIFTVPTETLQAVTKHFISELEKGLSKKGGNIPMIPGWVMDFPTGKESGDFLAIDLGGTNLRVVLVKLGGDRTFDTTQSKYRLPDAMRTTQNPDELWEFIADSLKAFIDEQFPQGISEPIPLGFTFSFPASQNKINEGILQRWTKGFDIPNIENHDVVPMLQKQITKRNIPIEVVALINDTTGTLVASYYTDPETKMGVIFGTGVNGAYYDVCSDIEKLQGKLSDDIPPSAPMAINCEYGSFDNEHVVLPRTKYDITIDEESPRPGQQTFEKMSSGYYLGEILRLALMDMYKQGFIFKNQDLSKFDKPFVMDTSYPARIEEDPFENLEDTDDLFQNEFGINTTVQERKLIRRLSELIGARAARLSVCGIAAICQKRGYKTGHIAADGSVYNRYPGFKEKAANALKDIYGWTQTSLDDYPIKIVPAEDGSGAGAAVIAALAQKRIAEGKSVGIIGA

YlHxk1 [3] = molecular target: T3, YlHxk1 (Yarrowia lipolytica, UniProt F2Z672, DEL7-15); details: relative to YlHxk1, absolute Km not given; extract 30 µg/mL protein in PBS pH 7.4; host hxk1 glk1
T3 construct: gene YALI0_B22308g; full-length, 534 residues, untagged; pTEF overexpression in Y. lipolytica Po1d hxk1 glk1; whole-cell extract; gene from W29 genomic DNA
T3 sequence (F2Z672 entry or part of it DEL7-15): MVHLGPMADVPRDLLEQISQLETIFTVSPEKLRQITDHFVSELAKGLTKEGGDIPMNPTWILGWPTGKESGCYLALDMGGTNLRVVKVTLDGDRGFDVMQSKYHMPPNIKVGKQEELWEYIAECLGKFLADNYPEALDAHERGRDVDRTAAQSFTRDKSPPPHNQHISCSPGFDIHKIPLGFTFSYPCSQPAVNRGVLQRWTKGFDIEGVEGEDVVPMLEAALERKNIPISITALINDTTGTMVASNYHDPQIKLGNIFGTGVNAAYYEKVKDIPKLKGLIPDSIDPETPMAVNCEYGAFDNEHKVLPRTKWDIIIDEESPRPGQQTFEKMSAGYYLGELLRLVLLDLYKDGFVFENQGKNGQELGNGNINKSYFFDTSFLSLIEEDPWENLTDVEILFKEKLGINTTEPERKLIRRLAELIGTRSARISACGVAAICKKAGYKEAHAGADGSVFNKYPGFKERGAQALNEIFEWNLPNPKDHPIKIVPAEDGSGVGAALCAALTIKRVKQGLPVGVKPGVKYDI

YlHxk1 [4] = molecular target: T4, YlHxk1 (Yarrowia lipolytica, UniProt F2Z672, DEL155-182); details: relative to YlHxk1, absolute Km not given; extract 30 µg/mL protein in PBS pH 7.4; host hxk1 glk1
T4 construct: gene YALI0_B22308g; full-length, 534 residues, untagged; pTEF overexpression in Y. lipolytica Po1d hxk1 glk1; whole-cell extract; gene from W29 genomic DNA
T4 sequence (F2Z672 entry or part of it DEL155-182): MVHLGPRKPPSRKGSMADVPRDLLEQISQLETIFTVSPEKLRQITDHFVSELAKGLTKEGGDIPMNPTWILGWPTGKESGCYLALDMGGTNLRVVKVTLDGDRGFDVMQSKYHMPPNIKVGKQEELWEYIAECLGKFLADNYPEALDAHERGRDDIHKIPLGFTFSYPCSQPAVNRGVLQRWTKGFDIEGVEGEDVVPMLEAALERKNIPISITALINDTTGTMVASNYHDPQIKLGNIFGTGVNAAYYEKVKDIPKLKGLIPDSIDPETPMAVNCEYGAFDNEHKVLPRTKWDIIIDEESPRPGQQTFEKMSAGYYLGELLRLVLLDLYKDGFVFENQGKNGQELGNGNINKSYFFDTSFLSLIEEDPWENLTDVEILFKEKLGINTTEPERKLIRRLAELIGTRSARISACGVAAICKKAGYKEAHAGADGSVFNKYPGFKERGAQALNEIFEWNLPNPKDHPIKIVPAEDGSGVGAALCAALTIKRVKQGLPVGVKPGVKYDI

YlHxk1 [5] = molecular target: T5, YlHxk1 (Yarrowia lipolytica, UniProt F2Z672); details: reference enzyme of the fold scale, no absolute Km of this study printed; otherwise same
T5 construct: gene YALI0_B22308g; full-length, 534 residues, untagged; pTEF overexpression in Y. lipolytica Po1d hxk1 glk1; whole-cell extract; gene from W29 genomic DNA
T5 sequence (F2Z672 1-534): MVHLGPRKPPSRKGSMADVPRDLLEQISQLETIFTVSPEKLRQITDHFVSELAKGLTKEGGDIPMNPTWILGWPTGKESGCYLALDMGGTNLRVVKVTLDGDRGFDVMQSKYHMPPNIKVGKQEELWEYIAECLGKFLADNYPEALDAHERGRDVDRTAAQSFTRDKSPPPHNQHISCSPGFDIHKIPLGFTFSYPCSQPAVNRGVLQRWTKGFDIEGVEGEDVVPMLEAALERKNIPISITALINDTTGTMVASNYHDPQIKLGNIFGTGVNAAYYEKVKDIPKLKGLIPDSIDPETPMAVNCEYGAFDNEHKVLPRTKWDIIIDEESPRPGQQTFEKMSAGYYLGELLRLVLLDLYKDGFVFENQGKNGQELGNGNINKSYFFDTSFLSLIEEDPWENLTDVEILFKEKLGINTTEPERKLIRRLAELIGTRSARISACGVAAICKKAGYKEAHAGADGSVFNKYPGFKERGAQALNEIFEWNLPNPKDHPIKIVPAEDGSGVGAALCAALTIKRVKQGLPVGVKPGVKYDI

YlHxk1 [6] = molecular target: T4, YlHxk1; details: relative to YlHxk1, absolute Km not given; extract 30 µg/mL protein in PBS pH 7.4; host hxk1 glk1; remark: listed apart in the source
ScHxk2 [7] = molecular target: T2, ScHxk2; details: relative to YlHxk1, absolute Km not given; extract 30 µg/mL protein in PBS pH 7.4; host hxk1 glk1; remark: listed apart in the source
YlHxk1 [8] = molecular target: T3, YlHxk1; details: relative to YlHxk1, absolute Km not given; extract 30 µg/mL protein in PBS pH 7.4; host hxk1 glk1; remark: listed apart in the source
YlHxk1 [9] = molecular target: T1, YlHxk1; details: relative to YlHxk1, absolute Km not given; extract 30 µg/mL protein in PBS pH 7.4; host hxk1 glk1; remark: listed apart in the source

Row | Compound | relative hexokinase activity at 20 mM glucose (YlHxk1 [1]) [fold vs YlHxk1] | 20 mM glucose (ScHxk2 [2]) [fold vs YlHxk1] | 20 mM glucose (YlHxk1 [3]) [fold vs YlHxk1] | 20 mM glucose (YlHxk1 [4]) [fold vs YlHxk1] | 20 mM glucose (YlHxk1 [5]) [fold vs YlHxk1] | hexokinase activity with 20 mM fructose, relative to YlHxk1 (YlHxk1 [6]) [fold vs YlHxk1] | relative hexokinase activity with 20 mM fructose (ScHxk2 [7]) [fold vs YlHxk1] | relative hexokinase activity on 20 mM fructose (YlHxk1 [8]) [fold vs YlHxk1] | relative hexokinase activity at 20 mM fructose (YlHxk1 [9]) [fold vs YlHxk1]
1 | OC[C@H]1OC(O)[C@H](O)[C@@H](O)[C@@H]1O (stereo partly shown) [glucose] | 2.50 ± 0.24 | 1.22 ± 0.16 | 0.18 ± 0.03 | 2.05 ± 0.32 | 1.00 |  |  |  | 
2 | OCC1(O)OC[C@@H](O)[C@@H](O)[C@@H]1O (stereo partly shown) [fructose] |  |  |  |  | 1.00 | 2.80 ± 0.28 | 8.00 ± 0.76 | 3.98 ± 0.67 | 0.53 ± 0.15
